# Data: patent publication US9302999B2, “Substituted triazoles as herbicides” (E. I. DU PONT DE NEMOURS AND COMPANY, priority 2012, dated 2016)
# Read-outs that look alike come from different tables or passages of the source.
# Experiments:
# Assay type in all cases: in vivo
# [1] = system: barnyardgrass (Echinochloa crus-galli); experiment: Test A pre-/postemergence: barnyardgrass; details: for pest or weed control at 125 g/ha / pest or weed control at 500 g/ha: Echinochloa crus-galli, 240 h
# Summary of the method: (§1)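 Rating scale 0–100 (100 = complete control), visual, ~10 days after application in the greenhouse. Applications: preemergence directed soil spray; postemergence at 1–2 leaves.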
# [2] = system: crabgrass, large (large crabgrass, Digitaria sanguinalis); experiment: Test A pre-/postemergence: crabgrass, large; details: for pest or weed control at 125 g/ha / pest or weed control at 500 g/ha: Digitaria sanguinalis, 240 h
# Summary of the method: as §1
# corn (Zea mays) = experiment: Test A pre-/postemergence: corn; details: for plant injury at 125 g/ha / plant injury at 500 g/ha / Corn plant response rating (crop injury, 0 = no effect, 100 = complete kill) at 125 g/ha / Corn plant response rating (crop injury, 0 = no effect, 100 = complete kill) at 500 g/ha: Zea mays, 240 h; for plant injury at 125 g/ha / plant injury at 500 g/ha: post-emergence, read-out: Corn plant response rating; for plant injury at 500 g/ha: visual rating on 0 to 100 scale (0 no effect, 100 complete control), approximately ten days; for Corn plant response rating (crop injury, 0 = no effect, 100 = complete kill) at 125 g/ha / Corn plant response rating (crop injury, 0 = no effect, 100 = complete kill) at 500 g/ha: pre-emergence
# Summary of the method: as §1
# [3] = system: blackgrass (Alopecurus myosuroides); experiment: Test C pre-/postemergence: blackgrass; details: Preemergence
# Source text: (§2) Seeds of plant species selected from blackgrass (Alopecurus myosuroides), bromegrass, downy (downy bromegrass, Bromus tectorum), foxtail, green (green foxtail, Setaria viridis), ryegrass, Italian (Italian ryegrass, Lolium multiflorum), winter wheat (Triticum aestivum), wild oat (Avena fatua), galium (catchweed bedstraw, Galium aparine), bermudagrass (Cynodon dactylon), surinam grass (Brachiaria decumbens), cocklebur (common cocklebur, Xanthium strumarium), corn (Zea mays), large crabgrass (Digitaria sanguinalis), woolly cupgrass (Eriochloa villosa), foxtail, giant (giant foxtail, Setaria faberii), goosegrass (Eleusine indica), johnsongrass (Sorghum halepense), kochia (Kochia scoparia), lambsquarters (Chenopodium album), morningglory (Ipomoea coccinea), nightshade (eastern black nightshade, Solanum ptycanthum), nutsedge, yellow (yellow nutsedge, Cyperus esculentus), pigweed (Amaranthus retroflexus), ragweed (common ragweed, Ambrosia elation), soybean (Glycine max), common (oilseed) sunflower (Helianthus annuus), Russian thistle (Salsola kali) and velvetleaf (Abutilon theophrasti) were planted into a blend of loam soil and sand and treated preemergence with test chemicals formulated in a non-phytotoxic solvent mixture which included a surfactant.
# (§3) At the same time, plants selected from these crop and weed species and also barley (winter barley, Hordeum vulgare), canarygrass (Phalaris minor), chickweed (common chickweed, Stellaria media) windgrass (Apera spica-venti) and deadnettle (henbit deadnettle, Lamium amplexicaule) were planted in pots containing Redi-Earth® planting medium (Scotts Company, 14111 Scottslawn Road, Marysville, Ohio 43041) comprising spaghnum peat moss, vermiculite, wetting agent and starter nutrients and treated with postemergence applications of test chemicals formulated in the same manner. Plants ranged in height from 2 to 18 cm (1- to 4-leaf stage) for postemergence treatments.
# (§4) Treated plants and controls were maintained in a greenhouse for 13 to 15 days, after which time all species were compared to controls and visually evaluated. Plant response ratings, summarized in Table C, are based on a scale of 0 to 100 where 0 is no effect and 100 is complete control. A dash (-) response means no test result.
# [4] = system: ryegrass, Italian (Italian ryegrass, Lolium multiflorum); experiment: Test C pre-/postemergence: ryegrass, Italian; details: Preemergence
# Source text: as §2, §3, §4
# [5] = system: galium (catchweed bedstraw, Galium aparine); experiment: Test C pre-/postemergence: galium; details: Preemergence
# Source text: as §2, §3, §4
# [6] = system: large crabgrass (Digitaria sanguinalis); experiment: Test C pre-/postemergence: large crabgrass; details: Preemergence
# Source text: as §2, §3, §4
# [7] = system: johnsongrass (Sorghum halepense); experiment: Test C pre-/postemergence: johnsongrass; details: Preemergence
# Source text: as §2, §3, §4
# [8] = system: lambsquarters (Chenopodium album); experiment: Test C pre-/postemergence: lambsquarters; details: Preemergence
# Source text: as §2, §3, §4
# [9] = system: nutsedge, yellow (yellow nutsedge, Cyperus esculentus); experiment: Test C pre-/postemergence: nutsedge, yellow; details: Preemergence
# Source text: as §2, §3, §4
# [10] = system: pigweed (Amaranthus retroflexus); experiment: Test C pre-/postemergence: pigweed; details: Preemergence
# Source text: as §2, §3, §4
# [11] = post-emergence, Postemergence, 125 g ai/ha, 0 to 100 scale, 0 is no effect, 100 is complete control, read-out: Barnyardgrass plant response rating
# [12] = post-emergence, Postemergence, 500 g ai/ha, visual rating on 0 to 100 scale (0 no effect, 100 complete control), approximately ten days, read-out: Barnyardgrass plant response rating
# [13] = post-emergence, Postemergence, 125 g ai/ha, 0 to 100 scale, 0 is no effect, 100 is complete control, read-out: Crabgrass, Large plant response rating
# [14] = post-emergence, Postemergence, 500 g ai/ha, visual rating on 0 to 100 scale (0 no effect, 100 complete control), approximately ten days, read-out: Crabgrass, Large plant response rating
# [15] = Postemergence, 125 g ai/ha, 0 to 100 scale, 0 is no effect, 100 is complete control
# [16] = Preemergence, 125 g ai/ha, 0 to 100 scale where 0 is no effect and 100 is complete control
# [17] = Preemergence, 500 g ai/ha, 0 to 100 scale (0 no effect, 100 complete control)
# [18] = Postemergence, 500 g ai/ha, 0 to 100 scale, 0 is no effect, 100 is complete control
# [19] = 16 g ai/ha, scale 0 (no effect) to 100 (complete control)
# [20] = 31 g ai/ha, scale 0 (no effect) to 100 (complete control)
# [21] = 62 g ai/ha, scale of 0 to 100, 0 is no effect, 100 is complete control
# [22] = 125 g ai/ha, scale 0 to 100, 0 no effect, 100 complete control
structure (smiles),measurement,setting,value
"CCc1nn(-c2ccc(C(F)(F)F)cc2)nc1Oc1cccc(OC(F)(F)F)c1 [Compound 125, 4-ethyl-5-[3-(trifluoromethoxy)phenoxy]-2-[4-(trifluoromethyl)phenyl]-2H-1,2,3-triazole]",pest or weed control at 125 g/ha,[1]; [11],0%
same,pest or weed control at 500 g/ha,[1]; [12],30%
same,pest or weed control at 125 g/ha,"[1]; pre-emergence, Preemergence, 125 g ai/ha, 0 to 100 scale where 0 is no effect and 100 is complete control, read-out: Plant response rating, Barnyardgrass",30%
same,pest or weed control at 500 g/ha,"[1]; pre-emergence, Preemergence, 500 g ai/ha, 0 to 100 scale (0 no effect, 100 complete control), read-out: Plant response rating, Barnyardgrass",50%
same,pest or weed control at 125 g/ha,[2]; [13],60%
same,pest or weed control at 500 g/ha,[2]; [14],90%
same,pest or weed control at 125 g/ha,"[2]; pre-emergence, Preemergence, 125 g ai/ha, 0 to 100 scale where 0 is no effect and 100 is complete control, read-out: Plant response rating, Crabgrass, Large",80%
same,pest or weed control at 500 g/ha,"[2]; pre-emergence, Preemergence, 500 g ai/ha, 0 to 100 scale (0 no effect, 100 complete control), read-out: Plant response rating, Crabgrass, Large",90%
same,plant injury at 125 g/ha,corn (Zea mays); [15],20%
same,plant injury at 500 g/ha,"corn (Zea mays); Postemergence, 500 g ai/ha",30%
same,"Corn plant response rating (crop injury, 0 = no effect, 100 = complete kill) at 125 g/ha",corn (Zea mays); [16],0%
same,"Corn plant response rating (crop injury, 0 = no effect, 100 = complete kill) at 500 g/ha",corn (Zea mays); [17],0%
CCOc1nn(-c2ccc(Br)cc2)nc1Cc1ccnc(C(F)(F)F)c1 [Compound 189],"Plant response rating, Barnyardgrass",[1]; [15],60
same,Barnyardgrass plant response rating,[1]; [18],80
same,"Plant response rating, Barnyardgrass",[1]; [16],80
same,"Plant response rating, Barnyardgrass",[1]; [17],90
same,"Plant response rating, Crabgrass, Large",[2]; [15],80
same,"Crabgrass, Large plant response rating",[2]; [18],90
same,"Plant response rating, Crabgrass, Large",[2]; [16],100
same,"Plant response rating, Crabgrass, Large",[2]; [17],100
same,"Plant response rating, Corn",corn (Zea mays); [15],20
same,Corn plant response rating,corn (Zea mays); [18],40
same,"Plant response rating, Corn",corn (Zea mays); [16],10
same,"Plant response rating, Corn",corn (Zea mays); [17],10
same,"Plant response rating, Blackgrass",[3]; [19],75
same,"Plant response rating, Blackgrass",[3]; [20],90
same,"Plant response rating, Blackgrass",[3]; [21],100
same,"Plant response rating, Blackgrass",[3]; [22],100
same,"Plant response rating, Ryegrass, Italian",[4]; [19],50
same,"Plant response rating, Ryegrass, Italian",[4]; [20],60
same,"Plant response rating, Ryegrass, Italian",[4]; [21],85
same,"Plant response rating, Ryegrass, Italian",[4]; [22],100
same,"Plant response rating, Galium",[5]; [19],80
same,"Plant response rating, Galium",[5]; [20],80
same,"Plant response rating, Galium",[5]; [21],80
same,"Plant response rating, Galium",[5]; [22],95
same,"Plant response rating, Crabgrass, Large",[6]; [19],98
same,"Plant response rating, Crabgrass, Large",[6]; [20],98
same,"Plant response rating, Crabgrass, Large",[6]; [21],100
same,"Plant response rating, Crabgrass, Large",[6]; [22],100
same,"Plant response rating, Johnsongrass",[7]; [19],30
same,"Plant response rating, Johnsongrass",[7]; [20],50
same,"Plant response rating, Johnsongrass",[7]; [21],85
same,"Plant response rating, Johnsongrass",[7]; [22],85
same,"Plant response rating, Lambsquarters",[8]; [19],45
same,"Plant response rating, Lambsquarters",[8]; [20],85
same,"Plant response rating, Lambsquarters",[8]; [21],90
same,"Plant response rating, Lambsquarters",[8]; [22],90
same,"Plant response rating, Nutsedge, Yellow",[9]; [19],0
same,"Plant response rating, Nutsedge, Yellow",[9]; [20],0
same,"Plant response rating, Nutsedge, Yellow",[9]; [21],0
same,"Plant response rating, Nutsedge, Yellow",[9]; [22],0
same,"Plant response rating, Pigweed",[10]; [19],85
same,"Plant response rating, Pigweed",[10]; [20],98
same,"Plant response rating, Pigweed",[10]; [21],100
same,"Plant response rating, Pigweed",[10]; [22],100
"COc1nn(-c2ccc(C(F)(F)F)cc2)nc1Cn1ccc(C(F)(F)F)n1 [Compound 17, 4-methoxy-2-[4-(trifluoromethyl)phenyl]-5-[[3-(trifluoromethyl)-1H-pyrazol-1-yl]methyl]-2H-1,2,3-triazole]",pest or weed control at 125 g/ha,[1]; [11],30%
same,pest or weed control at 500 g/ha,[1]; [12],90%
same,pest or weed control at 125 g/ha,"[1]; pre-emergence, Preemergence, 125 g ai/ha, 0 to 100 scale (0 no effect, 100 complete control), read-out: Plant response rating, Barnyardgrass",30%
same,pest or weed control at 500 g/ha,"[1]; pre-emergence, Preemergence, 500 g ai/ha, 0 to 100 scale, 0 is no effect, 100 is complete control, read-out: Plant response rating, Barnyardgrass",90%
same,pest or weed control at 125 g/ha,[2]; [13],90%
same,pest or weed control at 500 g/ha,[2]; [14],90%
same,pest or weed control at 125 g/ha,"[2]; pre-emergence, Preemergence, 125 g ai/ha, 0 to 100 scale (0 no effect, 100 complete control), read-out: Plant response rating, Crabgrass, Large",100%
same,pest or weed control at 500 g/ha,"[2]; pre-emergence, Preemergence, 500 g ai/ha, 0 to 100 scale, 0 is no effect, 100 is complete control, read-out: Plant response rating, Crabgrass, Large",100%
same,plant injury at 125 g/ha,corn (Zea mays); [15],30%
same,plant injury at 500 g/ha,"corn (Zea mays); Postemergence, 500 g ai/ha",30%
same,"Corn plant response rating (crop injury, 0 = no effect, 100 = complete kill) at 125 g/ha","corn (Zea mays); Preemergence, 125 g ai/ha, 0 to 100 scale (0 no effect, 100 complete control)",0%
same,"Corn plant response rating (crop injury, 0 = no effect, 100 = complete kill) at 500 g/ha","corn (Zea mays); Preemergence, 500 g ai/ha, 0 to 100 scale, 0 is no effect, 100 is complete control",20%
